#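 Compound exposure: 48 hours, 5 concentrations, 96-well plates. GI50: concentration for 50% inhibition of growth.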 Active and inactive are the calls of the source. Rule as the data show it: active = GI50 up to about 1.1 µM and inactive = higher.
# Tests used:
# Assay in all cases: NCI anticancer screen, dose series, 48 h
# SF-539 = system: SF-539
# DLD-1 = system: DLD-1
# M14 = system: M14
# OVCAR-5 = system: OVCAR-5
# SK-OV-3 = system: SK-OV-3
# A549 = system: A549
# MOLT-4 = system: MOLT-4
# RXF 393 = system: RXF 393
# NCI-H226 = system: NCI-H226
# COLO 205 = system: COLO 205
# Hs-578T = system: Hs-578T
# NCI-H460 = system: NCI-H460
# SR = system: SR
# SF-295 = system: SF-295
# KM-20L2 = system: KM-20L2
# OVCAR-4 = system: OVCAR-4
# IGROV-1 = system: IGROV-1
# OVCAR-3 = system: OVCAR-3
# U-251 = system: U-251
# KM12 = system: KM12
# EKVX = system: EKVX
# XF498 = system: XF498
# Malme-3M = system: Malme-3M
# PC-3 = system: PC-3
# UO-31 = system: UO-31
# SF-268 = system: SF-268
# MDA-MB-231 = system: MDA-MB-231
# TK-10 = system: TK-10
# MCF7 = system: MCF7
# DMS-114 = system: DMS-114
# A498 = system: A498
# HOP-92 = system: HOP-92
# HOP-18 = system: HOP-18
# SW-620 = system: SW-620
# SK-MEL-5 = system: SK-MEL-5
# LOX IMVI = system: LOX IMVI
# HCT-116 = system: HCT-116
# DMS-273 = system: DMS-273
# SNB-19 = system: SNB-19
# HCT-15 = system: HCT-15
# SK-MEL-2 = system: SK-MEL-2
# 786-0 = system: 786-0
# NCI/ADR-RES = system: NCI/ADR-RES
# HOP-62 = system: HOP-62
# NCI-H23 = system: NCI-H23
# HL-60 = system: HL-60
# UACC-62 = system: UACC-62
# MDA-N = system: MDA-N
# BT-549 = system: BT-549
# T47D = system: T47D
# CCRF-CEM = system: CCRF-CEM
# OVCAR-8 = system: OVCAR-8
# LXFL 529 = system: LXFL 529
# K562 = system: K562
# SN12C = system: SN12C
# UACC-257 = system: UACC-257
# SNB-75 = system: SNB-75
# NCI-H522 = system: NCI-H522
# DU-145 = system: DU-145
# CAKI-1 = system: CAKI-1
# ACHN = system: ACHN
# SK-MEL-28 = system: SK-MEL-28
# MDA-MB-435 = system: MDA-MB-435
# M19-MEL = system: M19-MEL
# RPMI-8226 = system: RPMI-8226
# HT-29 = system: HT-29
# HCC 2998 = system: HCC 2998
# SNB-78 = system: SNB-78
structure (smiles),measurement,setting,value
Cc1[nH]c(=O)nc(N/N=C/c2ccc(Cl)cc2)c1C(=O)Nc1ccc(Cl)cc1,GI50,SF-539,21.2 µM (inactive)
same,GI50,DLD-1,> 33.7 µM (inactive)
same,GI50,M14,8.07 µM (inactive)
same,GI50,OVCAR-5,82.4 µM (inactive)
same,GI50,SK-OV-3,12.2 µM (inactive)
same,GI50,A549,27 µM (inactive)
same,GI50,MOLT-4,45.5 µM (inactive)
same,GI50,RXF 393,23 µM (inactive)
same,GI50,NCI-H226,> 100 µM (inactive)
same,GI50,COLO 205,25.6 µM (inactive)
same,GI50,Hs-578T,> 100 µM (inactive)
same,GI50,NCI-H460,10.4 µM (inactive)
same,GI50,SR,44.3 µM (inactive)
same,GI50,SF-295,20.6 µM (inactive)
same,GI50,KM-20L2,> 100 µM (inactive)
same,GI50,OVCAR-4,9.95 µM (inactive)
same,GI50,IGROV-1,> 86.3 µM (inactive)
same,GI50,OVCAR-3,8.97 µM (inactive)
same,GI50,U-251,14.5 µM (inactive)
same,GI50,KM12,32.9 µM (inactive)
same,GI50,EKVX,> 86.5 µM (inactive)
same,GI50,XF498,4.68 µM (inactive)
same,GI50,Malme-3M,16.9 µM (inactive)
same,GI50,PC-3,> 60.1 µM (inactive)
same,GI50,UO-31,> 100 µM (inactive)
same,GI50,SF-268,41.8 µM (inactive)
same,GI50,MDA-MB-231,9.2 µM (inactive)
same,GI50,TK-10,27.6 µM (inactive)
same,GI50,MCF7,> 65.5 µM (inactive)
same,GI50,DMS-114,18.2 µM (inactive)
same,GI50,A498,32.6 µM (inactive)
same,GI50,HOP-92,28.8 µM (inactive)
same,GI50,HOP-18,1.22 µM (inactive)
same,GI50,SW-620,16.6 µM (inactive)
same,GI50,SK-MEL-5,18 µM (inactive)
same,GI50,LOX IMVI,14.9 µM (inactive)
same,GI50,HCT-116,7.59 µM (inactive)
same,GI50,DMS-273,12.6 µM (inactive)
same,GI50,SNB-19,7.41 µM (inactive)
same,GI50,HCT-15,38.5 µM
same,GI50,SK-MEL-2,76.6 µM (inactive)
same,GI50,786-0,19.4 µM (inactive)
same,GI50,NCI/ADR-RES,34.1 µM (inactive)
same,GI50,HOP-62,10.6 µM (inactive)
same,GI50,NCI-H23,30.7 µM (inactive)
same,GI50,HL-60,> 100 µM (inactive)
same,GI50,UACC-62,47.3 µM (inactive)
same,GI50,MDA-N,31.6 µM (inactive)
same,GI50,BT-549,> 100 µM (inactive)
same,GI50,T47D,13.7 µM (inactive)
same,GI50,CCRF-CEM,> 66.7 µM (inactive)
same,GI50,OVCAR-8,10.2 µM (inactive)
same,GI50,LXFL 529,23 µM (inactive)
same,GI50,K562,22.9 µM (inactive)
same,GI50,SN12C,35.6 µM (inactive)
same,GI50,UACC-257,31 µM (inactive)
same,GI50,SNB-75,6.05 µM (inactive)
same,GI50,NCI-H522,27.3 µM (inactive)
same,GI50,DU-145,> 100 µM (inactive)
same,GI50,CAKI-1,53.5 µM (inactive)
same,GI50,ACHN,54.8 µM (inactive)
same,GI50,SK-MEL-28,27.4 µM (inactive)
same,GI50,MDA-MB-435,39.4 µM (inactive)
same,GI50,M19-MEL,16.1 µM (inactive)
same,GI50,RPMI-8226,22.1 µM (inactive)
same,GI50,HT-29,24.1 µM (inactive)
same,GI50,HCC 2998,> 100 µM (inactive)
same,GI50,SNB-78,> 100 µM (inactive)
CCSC1(SCC)CC(Cc2ccc(OC)cc2)N(/C=N/C(C)(C)C)C1 (stereo not given),GI50,SF-539,54.5 µM (inactive)
same,GI50,DLD-1,33.5 µM (inactive)
same,GI50,M14,14.7 µM (inactive)
same,GI50,OVCAR-5,11.5 µM (inactive)
same,GI50,SK-OV-3,22.8 µM (inactive)
same,GI50,A549,36.9 µM (inactive)
same,GI50,MOLT-4,14.7 µM (inactive)
same,GI50,RXF 393,11.5 µM (inactive)
same,GI50,NCI-H226,27.6 µM (inactive)
same,GI50,COLO 205,21 µM (inactive)
same,GI50,NCI-H460,8.51 µM (inactive)
same,GI50,SR,10.6 µM (inactive)
same,GI50,SF-295,15.1 µM (inactive)
same,GI50,KM-20L2,12.9 µM (inactive)
same,GI50,OVCAR-4,29.7 µM (inactive)
same,GI50,IGROV-1,37.8 µM (inactive)
same,GI50,OVCAR-3,27.8 µM (inactive)
same,GI50,U-251,19.1 µM (inactive)
same,GI50,KM12,25.9 µM (inactive)
same,GI50,EKVX,27 µM (inactive)
same,GI50,XF498,18.1 µM (inactive)
same,GI50,Malme-3M,20.1 µM (inactive)
same,GI50,UO-31,17.3 µM (inactive)
same,GI50,SF-268,61 µM (inactive)
same,GI50,TK-10,17.3 µM (inactive)
same,GI50,DMS-114,20.1 µM (inactive)
same,GI50,A498,33.6 µM (inactive)
same,GI50,HOP-92,0.321 µM (active)
same,GI50,HOP-18,41.1 µM (inactive)
same,GI50,SW-620,15.1 µM (inactive)
same,GI50,SK-MEL-5,16.4 µM (inactive)
same,GI50,LOX IMVI,15.1 µM (inactive)
same,GI50,HCT-116,20.9 µM (inactive)
same,GI50,DMS-273,37.4 µM (inactive)
same,GI50,SNB-19,38.7 µM (inactive)
same,GI50,HCT-15,25.8 µM
same,GI50,SK-MEL-2,33.1 µM (inactive)
same,GI50,786-0,32.1 µM (inactive)
same,GI50,HOP-62,56.9 µM (inactive)
same,GI50,NCI-H23,18.7 µM (inactive)
same,GI50,HL-60,10.6 µM (inactive)
same,GI50,UACC-62,19.1 µM (inactive)
same,GI50,CCRF-CEM,15.2 µM (inactive)
same,GI50,OVCAR-8,28.2 µM (inactive)
same,GI50,LXFL 529,25.3 µM (inactive)
same,GI50,K562,17.8 µM (inactive)
same,GI50,SN12C,25 µM (inactive)
same,GI50,UACC-257,20.2 µM (inactive)
same,GI50,SNB-75,26.2 µM (inactive)
same,GI50,NCI-H522,15 µM (inactive)
same,GI50,CAKI-1,21 µM (inactive)
same,GI50,ACHN,32.5 µM (inactive)
same,GI50,SK-MEL-28,35.8 µM (inactive)
same,GI50,M19-MEL,29 µM (inactive)
same,GI50,HT-29,10.7 µM (inactive)
same,GI50,HCC 2998,17 µM (inactive)
same,GI50,SNB-78,31.8 µM (inactive)
